# According to US8765728B2, “[1,5]-diazocin derivatives” (MelliTech, priority 2009, dated 2014):
# Test system: Min6 cell
# Assay: Insulin secretion response of beta cell line to formula I compounds (insulin ELISA)
# Assay type: cell-based
# Conditions: rank according to % increase versus control at most effective dose
# Summary of the method: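 After compound or vehicle exposure, Min6 cells were held 2 h in glucose-free medium and preincubated 30 min at 37° C in glucose-free KRBH (pH 7.4, 0.1% BSA). They were then incubated 30 min at 37° C in KRBH with varying glucose. Secreted insulin and acid-ethanol-extracted intracellular insulin were measured by ELISA.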
row,SMILES,Insulin secretion (Min6 cell) Range 1 to 5
1,"O=C1CCN(CC(O)c2cccc(F)c2)c2ccc3c(c2CN1C1CC1)OCCO3 (stereo not shown) [Compound 96, 11-cyclopropyl-7-[2-(3-fluorophenyl)-2-hydroxyethyl]-2,3,8,9,11,12-hexahydro[1,4]dioxino[2,3-h][1,5]benzodiazocin-10(7H)-one]",3 (3: 120-140% of control)
2,"O=C1CCN(CC(O)c2ccc(Cl)cc2)c2ccc3c(c2CN1C1CC1)OCCO3 (stereo not shown) [Compound 97, 7-[2-(4-chlorophenyl)-2-hydroxyethyl]-11-cyclopropyl-2,3,8,9,11,12-hexahydro[1,4]dioxino[2,3-h][1,5]benzodiazocin-10(7H)-one]",2 (2: 110-120% of control)
3,"COc1ccc2c(c1)CN(C1CC1)C(=O)CCN2C(=O)c1ncoc1-c1ccccc1 [Compound 98, 5-cyclopropyl-8-methoxy-1-(5-phenyloxazole-4-carbonyl)-2,3,5,6-tetrahydrobenzo[b][1,5]diazocin-4(1H)-one]",2 (2: 110-120% of control)
4,"COc1ccc2c(c1)CN(C1CC1)C(=O)CCN2C(=O)c1cc(C)nn1C [Compound 99, 5-cyclopropyl-1-(1,3-dimethyl-1H-pyrazole-5-carbonyl)-8-methoxy-2,3,5,6-tetrahydrobenzo[b][1,5]diazocin-4(1H)-one]",1 (1: 90-110% of control)
5,"COc1ccc2c(c1)CN(C1CC1)C(=O)CCN2C(=O)c1c(C)noc1C [Compound 100, 5-cyclopropyl-1-(3,5-dimethylisoxazole-4-carbonyl)-8-methoxy-2,3,5,6-tetrahydrobenzo[b][1,5]diazocin-4(1H)-one]",1 (1: 90-110% of control)
6,"COc1ccc2c(c1)CN(C1CC1)C(=O)CCN2C(=O)c1cnccn1 [Compound 101, 5-cyclopropyl-8-methoxy-1-(pyrazine-2-carbonyl)-2,3,5,6-tetrahydrobenzo[b][1,5]diazocin-4(1H)-one]",2 (2: 110-120% of control)
7,"O=C(c1ncoc1-c1ccccc1)N1CCC(=O)N(C2CC2)Cc2cccnc21 [Compound 103, 5-cyclopropyl-1-(5-phenyloxazole-4-carbonyl)-2,3,5,6-tetrahydropyrido[2,3-b][1,5]diazocin-4(1H)-one]",2 (2: 110-120% of control)
8,"Cc1cc(C(=O)N2CCC(=O)N(C3CC3)Cc3cccnc32)no1 [Compound 104, 5-cyclopropyl-1-(5-methylisoxazole-3-carbonyl)-2,3,5,6-tetrahydropyrido[2,3-b][1,5]diazocin-4(1H)-one]",4 (4: 140-170% of control)
9,"Cc1cc(C(=O)N2CCC(=O)N(C3CC3)Cc3cccnc32)n(C)n1 [Compound 105, 5-cyclopropyl-1-(1,3-dimethyl-1H-pyrazole-5-carbonyl)-2,3,5,6-tetrahydropyrido[2,3-b][1,5]diazocin-4(1H)-one]",3 (3: 120-140% of control)
10,"Cc1noc(C)c1C(=O)N1CCC(=O)N(C2CC2)Cc2cccnc21 [Compound 106, 5-cyclopropyl-1-(3,5-dimethylisoxazole-4-carbonyl)-2,3,5,6-tetrahydropyrido[2,3-b][1,5]diazocin-4(1H)-one]",1 (1: 90-110% of control)
11,"O=C(c1cnccn1)N1CCC(=O)N(C2CC2)Cc2cccnc21 [Compound 107, 5-cyclopropyl-1-(pyrazine-2-carbonyl)-2,3,5,6-tetrahydropyrido[2,3-b][1,5]diazocin-4(1H)-one]",2 (2: 110-120% of control)
12,"O=C1CCNc2ccc(OC(F)F)cc2CN1C1CC1 [Compound 108, 5-cyclopropyl-8-(difluoromethoxy)-2,3,5,6-tetrahydrobenzo[b][1,5]diazocin-4(1H)-one]",2 (2: 110-120% of control)
13,"COc1ccc2c(c1)CN(C1CC1)C(=O)CCN2C[C@@H](O)COc1cccc(F)c1 [Compound 109, (R)-5-cyclopropyl-1-(3-(3-fluorophenoxy)-2-hydroxypropyl)-8-methoxy-2,3,5,6-tetrahydrobenzo[b][1,5]diazocin-4(1H)-one]",3 (3: 120-140% of control)
14,"COc1ccc2c(c1)CN(C1CC1)C(=O)CCN2C[C@H](O)COc1cccc(F)c1 [Compound 110, (S)-5-cyclopropyl-1-(3-(3-fluorophenoxy)-2-hydroxypropyl)-8-methoxy-2,3,5,6-tetrahydrobenzo[b][1,5]diazocin-4(1H)-one]",1 (1: 90-110% of control)
15,"O=C(c1ccno1)N1CCC(=O)N(C2CC2)Cc2cc(OC(F)F)ccc21 [Compound 111, 5-cyclopropyl-8-(difluoromethoxy)-1-(isoxazole-5-carbonyl)-2,3,5,6-tetrahydrobenzo[b][1,5]diazocin-4(1H)-one]",1 (1: 90-110% of control)
16,"O=C(c1ncoc1-c1ccccc1)N1CCC(=O)N(C2CC2)Cc2cc(OC(F)F)ccc21 [Compound 112, 5-cyclopropyl-8-(difluoromethoxy)-1-(5-phenyloxazole-4-carbonyl)-2,3,5,6-tetrahydrobenzo[b][1,5]diazocin-4(1H)-one]",1 (1: 90-110% of control)
17,"Cc1cc(C(=O)N2CCC(=O)N(C3CC3)Cc3cc(OC(F)F)ccc32)no1 [Compound 113, 5-cyclopropyl-8-(difluoromethoxy)-1-(5-methylisoxazole-3-carbonyl)-2,3,5,6-tetrahydrobenzo[b][1,5]diazocin-4(1H)-one]",1 (1: 90-110% of control)
18,"Cc1cc(C(=O)N2CCC(=O)N(C3CC3)Cc3cc(OC(F)F)ccc32)n(C)n1 [Compound 114, 5-cyclopropyl-8-(difluoromethoxy)-1-(1,3-dimethyl-1H-pyrazole-5-carbonyl)-2,3,5,6-tetrahydrobenzo[b][1,5]diazocin-4(1H)-one]",1 (1: 90-110% of control)
19,"Cc1noc(C)c1C(=O)N1CCC(=O)N(C2CC2)Cc2cc(OC(F)F)ccc21 [Compound 115, 5-cyclopropyl-8-(difluoromethoxy)-1-(3,5-dimethylisoxazole-4-carbonyl)-2,3,5,6-tetrahydrobenzo[b][1,5]diazocin-4(1H)-one]",1 (1: 90-110% of control)
20,"O=C(c1cnccn1)N1CCC(=O)N(C2CC2)Cc2cc(OC(F)F)ccc21 [Compound 116, 5-cyclopropyl-8-(difluoromethoxy)-1-(pyrazine-2-carbonyl)-2,3,5,6-tetrahydrobenzo[b][1,5]diazocin-4(1H)-one]",2 (2: 110-120% of control)
21,"O=C1CCN(C[C@@H](O)COc2cccc(F)c2)c2ccc(OC(F)F)cc2CN1C1CC1 [Compound 117, (R)-5-cyclopropyl-8-(difluoromethoxy)-1-(3-(3-fluorophenoxy)-2-hydroxypropyl)-2,3,5,6-tetrahydrobenzo[b][1,5]diazocin-4(1H)-one]",1 (1: 90-110% of control)
22,"O=C1CCN(C[C@H](O)COc2cccc(F)c2)c2ccc(OC(F)F)cc2CN1C1CC1 [Compound 118, (S)-5-cyclopropyl-8-(difluoromethoxy)-1-(3-(3-fluorophenoxy)-2-hydroxypropyl)-2,3,5,6-tetrahydrobenzo[b][1,5]diazocin-4(1H)-one]",2 (2: 110-120% of control)
